Where a SMILES comes first, the peptide text is derived from it.
How the values were obtained:
[1] = system: Streptococcus agalactiae ATCC 12386; test: microbe, parasite or virus in culture; type: cell-based; conditions: ATCC 12386; read-out: MIC S. agalactiae ATCC
How it was run: (§1)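 Broth microdilution per CLSI M07-A/M26A; cathelicidin peptides tested at final 64-0.125μg/mL, inoculum 5 x 10^5 CFU/mL, 35°C for 20–24 hours. Bacteria in MHB (±10% lysed horse blood, ±Ca/Mg), yeasts in RPMI-1640 MOPS. MIC = lowest concentration preventing visible growth.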

[2] = system: Streptococcus pneumoniae ATCC 49619; test: microbe, parasite or virus in culture; type: cell-based; conditions: ATCC 49619; read-out: MIC S. pneumoniae ATCC
How it was run: as §1

[3] = system: Streptococcus agalactiae Clinical isolate - animal; test: microbe, parasite or virus in culture; type: cell-based; conditions: clinical isolate - animal; read-out: MIC S. agalactiae
How it was run: as §1

[4] = system: Pseudomonas aeruginosa ATCC 27853; test: microbe, parasite or virus in culture; type: cell-based; conditions: ATCC 27853; read-out: MIC P. aeruginosa ATCC
How it was run: (§2)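 Broth microdilution per CLSI M07-A/M26A: DMSO-solubilized cathelicidin mature peptides at final 64-0.125μg/mL in Mueller Hinton broth (with or without 10% lysed horse blood, with or without calcium/magnesium), final inoculum 5 x 10^5 CFU/mL, 35°C for 20–24 hours. MIC = lowest concentration preventing visible growth.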

[5] = system: Escherichia coli ATCC 25922; test: microbe, parasite or virus in culture; type: cell-based; conditions: ATCC 25922
How it was run: as §2

[6] = system: Staphylococcus aureus ATCC 29213; test: microbe, parasite or virus in culture; type: cell-based; conditions: ATCC 29213; read-out: MIC S. aureus ATCC
How it was run: as §2

[7] = system: Escherichia coli clinical isolate - animal; test: microbe, parasite or virus in culture; type: cell-based; conditions: clinical isolate - animal
How it was run: as §2

[8] = system: Pseudomonas aeruginosa clinical isolate - animal; test: microbe, parasite or virus in culture; type: cell-based; conditions: clinical isolate - animal; read-out: MIC P. aeruginosa
How it was run: as §2

[9] = system: Staphylococcus aureus clinical isolate - animal; test: microbe, parasite or virus in culture; type: cell-based; conditions: clinical isolate - animal; read-out: MIC S. aureus
How it was run: as §2

E. coli ATCC 25922 = test: Killing kinetics (time kill assay); type: cell-based, Escherichia coli; conditions: MHB, 35°C, sampled 1-24 hours, n = 2
Procedure: The killing kinetics assay was conducted using mid-logarithmic phase cultures of E. coli ATCC 25922 and S. aureus ATCC 29213 in MHB. Cultures were adjusted to a 0.5 McFarland standard, diluted in MHB, and then 100µL was added to each culture tube containing 10mL pre-warmed MHB to give a final inoculum concentration of 5 x 10^5 CFU/mL. A sterility control of 100uL MHB, growth control (no cathelicidin), and vehicle control (DMSO) were also included. Furthermore, 10uL was immediately removed from the growth control tube, diluted 1/1000 in saline and 100µL plated onto MHA in duplicate to confirm inoculum density. To establish colony counts from 0 hours of cathelicidin treatment, 200µL was removed from each culture tube and serially diluted ten-fold in saline from 10^0 to […] in a total volume of 200µL. Then, 10µL of each dilution was spotted onto MHA in duplicate, which were incubated at 35°C for 24 hours.
All culture tubes were then incubated at 35°C static. At 1, 2, 4, 6, 8, 10, 12, and 24 hours post-cathelicidin treatment, 200µL was removed from each culture tube for dilution and plated on MHA as described above. […] Counts of duplicates were averaged, and the log10 CFU/mL graphed against time. This was used as input for one-way ANOVA (p < 0.05) followed by Dunnett’s post hoc test.

CC[C@H](C)[C@H](NC(=O)[C@H](CC(=O)O)NC(=O)[C@H](CC(=O)O)NC(=O)CNC(=O)[C@H](CC(C)C)NC(=O)[C@H](CCCCN)NC(=O)[C@@H](NC(=O)[C@H](C)NC(=O)[C@H](CCCCN)NC(=O)[C@H](CCCNC(=N)N)NC(=O)[C@H](CCCCN)NC(=O)[C@H](CC(C)C)NC(=O)[C@H](CO)NC(=O)[C@H](CCC(=O)O)NC(=O)[C@H](Cc1c[nH]c2ccccc12)NC(=O)[C@H](CC(C)C)NC(=O)CNC(=O)[C@H](CCCNC(=N)N)NC(=O)[C@@H](N)CCCCN)[C@@H](C)O)C(=O)N[C@@H](CCCNC(=N)N)C(=O)N[C@@H](CC(N)=O)C(=O)N[C@H](C(=O)N[C@@H](CC(C)C)C(=O)N[C@@H](CCCNC(=N)N)C(=O)N[C@@H](CC(N)=O)C(=O)N[C@@H](Cc1ccccc1)C(=O)N[C@@H](CCCCN)C(=O)N[C@H](C(=O)N[C@@H](CCCCN)C(=O)N[C@H](C(=O)N1CCC[C@H]1C(=O)N[C@H](C(=O)N1CCC[C@H]1C(=O)N[C@@H](CCCNC(=N)N)C(=O)N[C@@H](CCC(N)=O)C(=O)N[C@@H](Cc1c[nH]c2ccccc12)C(=O)N1CCC[C@H]1C(=O)N[C@H](C(=O)N[C@@H](CCCNC(=N)N)C(=O)N[C@H](C(=O)O)C(C)C)[C@@H](C)CC)C(C)C)C(C)C)[C@@H](C)CC)[C@@H](C)O [MaruCath4] (H-KRGLWESLKRKATKLGDDIRNTLRNFKIKVPVPRQWPIRV-OH; N-terminus and C-terminus assumed)
6.6 (6.6)^6.6 µM: MBC E. coli [7] | MIC E. coli [7] | MIC in the presence of cations E. coli [7]
1.6 (1.6)^1.6 µM: MIC E. coli ATCC [5] | MIC in the presence of cations E. coli ATCC [5]
4 hours: Number of hours to cause a significant reduction in log CFU/mL of E. coli ATCC (p < 0.05) (E. coli ATCC 25922; 2x MIC) | Number of hours to cause a significant reduction in log CFU/mL of E. coli ATCC (p < 0.05) (E. coli ATCC 25922; MIC)
>13.2 µM: MIC [1] | MIC [2] | MIC [3] | MIC [4] | MIC [6] | MIC [8] | MIC [9]
